The assay has as its target T1, SIRT1 (Homo sapiens, UniProt Q96EB6).
T1 sequence (Q96EB6 1-747): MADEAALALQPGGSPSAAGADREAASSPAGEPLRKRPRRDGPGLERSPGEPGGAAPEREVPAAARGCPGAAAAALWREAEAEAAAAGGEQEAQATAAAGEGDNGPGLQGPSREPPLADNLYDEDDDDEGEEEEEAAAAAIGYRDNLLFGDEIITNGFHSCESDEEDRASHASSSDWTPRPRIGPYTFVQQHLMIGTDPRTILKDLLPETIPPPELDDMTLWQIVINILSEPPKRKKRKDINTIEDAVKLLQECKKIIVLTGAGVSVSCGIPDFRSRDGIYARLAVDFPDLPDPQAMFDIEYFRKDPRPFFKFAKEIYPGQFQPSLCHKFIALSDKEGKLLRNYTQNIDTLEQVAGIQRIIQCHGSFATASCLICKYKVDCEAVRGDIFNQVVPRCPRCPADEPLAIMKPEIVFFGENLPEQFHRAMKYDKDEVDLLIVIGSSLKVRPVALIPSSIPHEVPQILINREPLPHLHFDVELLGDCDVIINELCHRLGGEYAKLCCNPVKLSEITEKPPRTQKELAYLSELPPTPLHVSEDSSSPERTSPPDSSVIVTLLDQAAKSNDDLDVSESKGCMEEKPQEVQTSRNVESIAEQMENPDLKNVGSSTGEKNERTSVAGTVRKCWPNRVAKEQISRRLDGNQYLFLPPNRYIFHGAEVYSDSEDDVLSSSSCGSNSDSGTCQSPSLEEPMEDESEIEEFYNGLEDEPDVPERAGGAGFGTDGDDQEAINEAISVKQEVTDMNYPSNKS
The assay can be described thus: mass spectrometry based SIRT1 deacetylation assay (activation). It counts as biochemical. The following applies: 0.5 μM peptide substrate, 120 μM βNAD+, 10 nM SIRT1, 25 min at 25° C.; for EC1.5 (concentration of test compound that results in 150% activation of SIRT1): NA = not active in the assay; for Emax: read-out: % FOLD ACT. (percent maximum fold activation of SIRT1). The text has this: A mass spectrometry based assay was used to identify modulators of SIRT1 activity. The mass spectrometry based assay utilizes a peptide having 20 amino acid residues as follows: Ac-EE-K(biotin)-GQSTSSHSK(Ac)NleSTEG-K(5TMR)-EE-NH2 (SEQ ID NO: 1) wherein K(Ac) is an acetylated lysine residue and Nle is a norleucine. The peptide is labeled with the fluorophore 5TMR (excitation 540 nm/emission 580 nm) at the C-terminus. The sequence of the peptide substrate is based on p53 with several modifications. In addition, the methionine residue naturally present in the sequence was replaced with the norleucine because the methionine may be susceptible to oxidation during synthesis and purification.
Test compounds may be added to the reaction as described above. […] After the 25 minute incubation with SIRT1, 10 μL of 10% formic acid is added to stop the reaction. Reactions are sealed and frozen for later mass spec analysis. Determination of the mass of the substrate peptide allows for precise determination of the degree of acetylation (i.e. starting material) as compared to deacetylated peptide (product).
A control for inhibition of sirtuin activity is conducted by adding 1 μL of 500 mM nicotinamide as a negative control at the start of the reaction (e.g., permits determination of maximum sirtuin inhibition). A control for activation of sirtuin activity is conducted using 10 nM of sirtuin protein, with 1 μL of DMSO in place of compound, to determine the amount of deacetylation of the substrate at a given timepoint within the linear range of the assay. This timepoint is the same as that used for test compounds and, within the linear range, the endpoint represents a change in velocity.
For the above assay, SIRT1 protein was expressed and purified as follows. […] The protein was expressed by induction with 1 mM IPTG as an N-terminal His-tag fusion protein at 18° C. overnight and harvested at 30,000×g. Cells were lysed with lysozyme in lysis buffer (50 mM Tris-HCl, 2 mM Tris[2-carboxyethyl]phosphine (TCEP), 10 μM ZnCl2, 200 mM NaCl) and further treated with sonication for 10 min for complete lysis. The protein was purified over a Ni-NTA column (Amersham) and fractions containing pure protein were pooled, concentrated and run over a sizing column (Sephadex S200 26/60 global). The peak containing soluble protein was collected and run on an Ion-exchange column (MonoQ). Gradient elution (200 mM-500 mM NaCl) yielded pure protein. This protein was concentrated and dialyzed against dialysis buffer (20 mM Tris-HCl, 2 mM TCEP) overnight. The protein was aliquoted and frozen at −80° C. until further use.
Sirtuin modulating compounds that activated SIRT1 were identified using the assay described above and are shown below in Table 3. The EC1.5 values represent the concentration of test compounds that result in 150% activation of SIRT1. NT means that the compound was not tested using the indicated assay. NA means that the compound was not active in the indicated assay.

`O=C(Nc1ccccc1-c1nc2cc(CN3CCOCC3)cnc2s1)c1cccc(-c2ccccc2)c1` [Compound 1]: the “EC1.5 (concentration of test compound that results in 150% activation of SIRT1)” value is 233 NM and the Emax was 241%.

As to `O=C(Nc1ccccc1-c1nc2cc(CN3CCOCC3)cnc2s1)c1cc(-c2ccccc2)no1` [Compound 2], the Emax stood at 132%.

Regarding `O=C(Nc1ccccc1-c1nc2cc(CN3CCOCC3)cnc2s1)c1cc(-c2ccccc2)n[nH]1` [Compound 3], the “EC1.5 (concentration of test compound that results in 150% activation of SIRT1)” value stood at 1620 NM and the Emax is 246%.

As for `O=C(Nc1ccccc1-c1nc2cc(CN3CCOCC3)cnc2s1)c1cccc(-c2ccccn2)c1` [Compound 4], the “EC1.5 (concentration of test compound that results in 150% activation of SIRT1)” value stood at 504 NM and the Emax came to 321%.

Turning to `O=C(Nc1ccccc1-c1nc2cc(CN3CCOCC3)cnc2s1)c1cccc(-c2cccnc2)c1` [Compound 5], the “EC1.5 (concentration of test compound that results in 150% activation of SIRT1)” value amounted to 665 NM and the Emax stood at 281%.

Turning to `O=C(Nc1ccccc1-c1nc2cc(CN3CCOCC3)cnc2s1)c1cccc(-c2ccncc2)c1` [Compound 6], the “EC1.5 (concentration of test compound that results in 150% activation of SIRT1)” value is 746 NM and the Emax amounted to 274%.

Turning to `O=C(Nc1ccccc1-c1nc2cc(CN3CCNCC3)cnc2s1)c1cccc(-c2ccccn2)c1` [Compound 8], the “EC1.5 (concentration of test compound that results in 150% activation of SIRT1)” value was found to be 340 NM and the Emax was 471%.

`O=C(Nc1ccccc1-c1nc2cc(CN3CCNCC3)cnc2s1)c1cccc(-c2cccnc2)c1` [Compound 9]: the “EC1.5 (concentration of test compound that results in 150% activation of SIRT1)” value was 416 NM and the Emax came out at 392%.

Take `O=C(Nc1ccccc1-c1nc2cc(CN3CCNCC3)cnc2s1)c1cccc(-c2ccncc2)c1` [Compound 10]: the “EC1.5 (concentration of test compound that results in 150% activation of SIRT1)” value was found to be 492 NM and the Emax stood at 316%.

As to `NC1CCN(Cc2cnc3sc(-c4ccccc4NC(=O)c4cccc(-c5ccccc5)c4)nc3c2)CC1` [Compound 11], the “EC1.5 (concentration of test compound that results in 150% activation of SIRT1)” value was determined as 78 NM and the Emax is 578%.

As for `NC1CCN(Cc2cnc3sc(-c4ccccc4NC(=O)c4cccc(-c5ccncc5)c4)nc3c2)CC1` [Compound 12], the “EC1.5 (concentration of test compound that results in 150% activation of SIRT1)” value was determined as 249 NM and the Emax came to 550%.

On to `O=C(Nc1ccccc1-c1nc2cc(CN3CCCC3)cnc2s1)c1cccc(-c2ccccc2)c1` [Compound 13], for which the “EC1.5 (concentration of test compound that results in 150% activation of SIRT1)” value is reported as 584 NM and the Emax is 252%.

Consider `CC(C)NCc1cnc2sc(-c3ccccc3NC(=O)c3cccc(-c4ccccn4)c3)nc2c1` [Compound 14], for which the “EC1.5 (concentration of test compound that results in 150% activation of SIRT1)” value is recorded as 937 NM and the Emax amounted to 381%.

Take `C[C@@H]1CN(Cc2cnc3sc(-c4ccccc4NC(=O)c4cccc(-c5ccccn5)c4)nc3c2)C[C@H](C)N1` [Compound 15]: the “EC1.5 (concentration of test compound that results in 150% activation of SIRT1)” value was 627 NM and the Emax came out at 531%.

For `C[C@@H]1CN(Cc2cnc3sc(-c4ccccc4NC(=O)c4cccc(-c5cccnc5)c4)nc3c2)C[C@H](C)N1` [Compound 16], the “EC1.5 (concentration of test compound that results in 150% activation of SIRT1)” value is recorded as 674 NM and the Emax came to 405%.

For `C[C@@H]1CN(Cc2cnc3sc(-c4ccccc4NC(=O)c4cccc(-c5ccncc5)c4)nc3c2)C[C@H](C)N1` [Compound 17], the “EC1.5 (concentration of test compound that results in 150% activation of SIRT1)” value is on record as 683 NM and the Emax worked out at 360%.

As to `NC1CCN(Cc2cnc3sc(-c4ccccc4NC(=O)c4cccc(-c5cccnc5)c4)nc3c2)CC1` [Compound 18], the “EC1.5 (concentration of test compound that results in 150% activation of SIRT1)” value came to 620 NM and the Emax stood at 457%.

Regarding `CC(C)NCc1cnc2sc(-c3ccccc3NC(=O)c3cccc(-c4ccccc4)c3)nc2c1` [Compound 19], the “EC1.5 (concentration of test compound that results in 150% activation of SIRT1)” value is 722 NM and the Emax stood at 198%.

With `O=C(Nc1ccccc1-c1nc2cc(CN3CCCC3)cnc2s1)c1cccc(-c2ccccn2)c1` [Compound 20], the “EC1.5 (concentration of test compound that results in 150% activation of SIRT1)” value was determined as 687 NM and the Emax stood at 224%.

Regarding `NC1CCN(Cc2cnc3sc(-c4ccccc4NC(=O)c4cccc(-c5ccccn5)c4)nc3c2)CC1` [Compound 21], the “EC1.5 (concentration of test compound that results in 150% activation of SIRT1)” value worked out at 162 NM and the Emax was found to be 906%.

As to `CC(C)NCc1cnc2sc(-c3ccccc3NC(=O)c3cccc(-c4ccncc4)c3)nc2c1` [Compound 22], the “EC1.5 (concentration of test compound that results in 150% activation of SIRT1)” value was found to be 2620 NM and the Emax worked out at 417%.

For `CC(C)NCc1cnc2sc(-c3ccccc3NC(=O)c3cccc(-c4cccnc4)c3)nc2c1` [Compound 23], the “EC1.5 (concentration of test compound that results in 150% activation of SIRT1)” value is given as 1950 NM and the Emax is 241%.

For the compound `C[C@@H]1CN(Cc2cnc3sc(-c4ccccc4NC(=O)c4cccc(-c5ccccc5)c4)nc3c2)C[C@H](C)N1` [Compound 24], the “EC1.5 (concentration of test compound that results in 150% activation of SIRT1)” value came out at 94 NM and the Emax came to 299%.

`O=C(Nc1ccccc1-c1nc2cc(CN3CC[C@@H](F)C3)cnc2s1)c1cccc(-c2ccccc2)c1` [Compound 25]: the “EC1.5 (concentration of test compound that results in 150% activation of SIRT1)” value is 469 NM and the Emax was found to be 203%.

Regarding `O=C(Nc1ccccc1-c1nc2cc(CN3CC[C@@H](F)C3)cnc2s1)c1cccc(-c2ccccn2)c1` [Compound 26], the “EC1.5 (concentration of test compound that results in 150% activation of SIRT1)” value was found to be 455 NM and the Emax is 192%.

With `O=C(Nc1ccccc1-c1nc2cc(CN3CC[C@@H](F)C3)cnc2s1)c1cccc(-c2cccnc2)c1` [Compound 27], the “EC1.5 (concentration of test compound that results in 150% activation of SIRT1)” value is 913 NM and the Emax was found to be 185%.

As to `CC(C)NCc1cnc2sc(-c3ccccc3NC(=O)c3cncc(-c4ccccc4)c3)nc2c1` [Compound 28], the “EC1.5 (concentration of test compound that results in 150% activation of SIRT1)” value was found to be 3590 NM and the Emax came out at 162%.

Regarding `O=C(Nc1ccccc1-c1nc2cc(CN3C[C@@H]4C[C@H]3CN4)cnc2s1)c1cccc(-c2cccnc2)c1` [Compound 29], the “EC1.5 (concentration of test compound that results in 150% activation of SIRT1)” value was 462 NM and the Emax was 378%.

As for `O=C(Nc1ccccc1-c1nc2cc(CN3CC[C@@H](F)C3)cnc2s1)c1cccc(-c2ccc[n+]([O-])c2)c1` [Compound 30], the “EC1.5 (concentration of test compound that results in 150% activation of SIRT1)” value worked out at 986 NM and the Emax was found to be 142%.

For `O=C(Nc1ccccc1-c1nc2cc(CN3CC[C@@H](F)C3)cnc2s1)c1cccc(-c2ncccn2)c1` [Compound 31], the “EC1.5 (concentration of test compound that results in 150% activation of SIRT1)” value was found to be 1000 NM and the Emax was determined as 168%.

For the compound `Cc1nc(-c2cccc(C(=O)Nc3ccccc3-c3nc4cc(CN5CC[C@@H](F)C5)cnc4s3)c2)cs1` [Compound 32], the “EC1.5 (concentration of test compound that results in 150% activation of SIRT1)” value stood at 815 NM and the Emax turned out to be 162%.

(Values after US8268862B2, “Sirtuin modulating compounds” (Sirtris Pharmaceuticals, Inc., priority 2007, dated 2012).)
